Substitutions are numbered along the chain they refer to.
How the values were obtained:
CD-I mice = assay: Apomorphine induced climbing model of psychosis; type: in vivo, mouse
Experimental: As described in Costall et. al. European Journal of Pharmacology 1978, 50, 39. individual CD-I mice, 1-2 months old, were placed in a cylindrical wire mesh cage (13.2 cm high×13.2 cm diameter) constructed of steel wire 1 mm thick spaced at 1.2 cm^2. Cylinders were placed in a standard OptiMICE mouse cage (29×32×9×29 cm wide and 14 cm high) with adequate wood chip bedding provided. Observations of climbing (defined as 3 or more paws off the ground) were carried out every 5 minutes at a duration of 1 minute for 30 minutes. Animals were injected subcutaneously under isoflurane anesthesia with test compounds, reference compounds, which included clozapine, haloperidol, olanzapine and xanomeline, or PBS as a control. This was followed 5 minutes later by 2 mg/kg apomorphine hydrochloride. All drugs were dissolved in PBS or a mixture of (by volume) 96% PBS and 4% hydroxypropyl-beta-cyclodextrin, and dosed at a rate of 5 ml per kilogram of body weight. Following injections, animals were replaced in the mesh cages and observed for climbing (defined as 3 or more paws off the ground) every 5 minutes for a duration of 1 minute for 60 minutes after dosing.

[1] = target: T1, human muscarinic M3 receptors (Homo sapiens, UniProt P20309); assay: Stimulation of inositol phosphate production in A9L cells, human M3 (IPOne TR-FRET); type: cell-based
T1 construct: host or cells: A9L cells
T1 sequence (P20309 whole entry): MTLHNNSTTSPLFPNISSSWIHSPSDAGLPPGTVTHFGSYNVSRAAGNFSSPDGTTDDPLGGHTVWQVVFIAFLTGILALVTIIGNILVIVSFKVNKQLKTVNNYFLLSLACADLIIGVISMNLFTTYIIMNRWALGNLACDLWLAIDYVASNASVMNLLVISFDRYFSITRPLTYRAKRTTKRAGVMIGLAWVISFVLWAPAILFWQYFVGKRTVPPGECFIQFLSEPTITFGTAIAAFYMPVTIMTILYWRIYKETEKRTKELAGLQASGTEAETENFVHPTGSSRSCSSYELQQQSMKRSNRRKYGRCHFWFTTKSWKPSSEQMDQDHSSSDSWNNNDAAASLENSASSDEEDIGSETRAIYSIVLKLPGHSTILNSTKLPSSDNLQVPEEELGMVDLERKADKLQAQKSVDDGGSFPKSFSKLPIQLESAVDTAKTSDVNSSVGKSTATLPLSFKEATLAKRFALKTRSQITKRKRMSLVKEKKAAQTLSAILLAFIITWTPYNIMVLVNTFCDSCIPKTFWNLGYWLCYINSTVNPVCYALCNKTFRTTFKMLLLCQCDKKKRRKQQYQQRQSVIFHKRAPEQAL
Experimental: (§1) Muscarinic M1 and M3 agonist activity was evaluated by measuring the stimulation of inositol phosphate (IP) production in the presence of lithium chloride from A9L cells transfected with expression plasmids containing human muscarinic M1 and M3 receptors, respectively. The cell lines were a gift from Professor W Messer, and the methods were as described in Tejada F R et al. J. Med. Chem. 2006; 49: 7518-31 except that the assay was scaled down to run in 384 well plates, and IP was measured in the cell lysates using the non-isotopic IPOne TR-FRET assay (CIS-BIO, Inc).
(§2) Cells were grown to 90% confluence in 384 well hi-base plates (Greiner Bio-One), compounds were added at suitable concentrations in growth medium containing 10 mM LiCL, buffered with an extra 10 mM HEPES (pH7.4), and incubated for 60 minutes at 37° C. Cells were lysed and assayed for IP following the manufacturer's instructions.
(§3) The value for a full agonist is 100%, while partial agonists give values below 100%.

A-beta = A-beta in hippocampal microdialysate of Tg-2576 transgenic mice; type: in vivo, mouse; details: single dose
Source text: These mice have high concentrations of A-beta in their brain tissue, thought to be the cause of neuron death in Alzheimer's disease, and accumulate amyloid plaques, recapitulating one of the hallmark pathological features of Alzheimer's disease.

Long Evans Hooded rats = assay: In vivo measurement of salivation; design: species or system rat; details: anesthetized normal rats, dose-dependent between about 0.1 mg/kg and 1 mg/kg
Experimental: Suitable doses of test compounds or drug substances were administered using standard techniques to Long Evans Hooded rats weighing 225 to 350 grams, or CD-1 mice weighing 30 to 50 grams, which had been anesthetized using 2-3.5%% of isoflurane in oxygen. The animals were placed slightly head-down on an inclined, heated ramp. Rectal temperature was monitored using a thermocouple and the temperature of the heating pad was adjusted manually to maintain normal body temperature. Saliva was collected from the mouth by absorption onto pre-weighed slips of filter paper. The filter paper was changed periodically and the amount of saliva was measured by weighing the filter paper slips.

[2] = target: T2, human muscarinic M1 receptors (Homo sapiens, UniProt P11229); assay: Stimulation of inositol phosphate production in A9L cells, human M1 (IPOne TR-FRET); type: cell-based
T2 construct: host or cells: A9L cells
T2 sequence (P11229 1-460): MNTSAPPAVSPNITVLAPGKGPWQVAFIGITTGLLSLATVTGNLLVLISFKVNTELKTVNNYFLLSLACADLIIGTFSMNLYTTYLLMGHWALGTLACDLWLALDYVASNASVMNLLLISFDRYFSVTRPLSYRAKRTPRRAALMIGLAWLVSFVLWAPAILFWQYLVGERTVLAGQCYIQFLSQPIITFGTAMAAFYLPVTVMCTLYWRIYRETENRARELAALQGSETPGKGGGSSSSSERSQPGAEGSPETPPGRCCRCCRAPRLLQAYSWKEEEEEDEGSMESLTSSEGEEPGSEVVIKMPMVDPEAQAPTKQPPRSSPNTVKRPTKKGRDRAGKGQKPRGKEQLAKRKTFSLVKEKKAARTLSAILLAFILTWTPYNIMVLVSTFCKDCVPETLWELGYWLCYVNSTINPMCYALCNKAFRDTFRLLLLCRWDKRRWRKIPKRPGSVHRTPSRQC
Experimental: as §1, §2, §3

[3] = tested on: pooled male human liver microsomes; assay: Metabolism by human liver microsomes; type: in vitro ADME; details: 6 hours incubation
Experimental: Compounds were incubated with pooled male human liver microsomes (BD Biosciences, #452172) and an NADP-regenerating system in a phosphate buffer (pH 7.4) for a total of 6 hours. Aliquots were removed every 2 hours, and 1% formic acid was added to halt the reaction. Samples were centrifuged, filtered through 0.2 micron spinfilter and the amount of each compound in the supernatants was quantitated using LC/MS/MS.

rats = assay: Muscarinic effects in vivo (salivary flow) in rats dosed orally; design: species or system rat
[4] = Metabolites in serum and urine of dosed rats; type: in vivo; details: rat serum/plasma or urine
Experimental: Oxadiazoles disclosed herein as well as other oxadiazoles were investigated to determine the formation of metabolites. Animals were dosed, blood taken, serum prepared, serum proteins precipitated and ultrafiltrates prepared as described in Example 6. In separate experiments, urine was collected from rats for 16-24 hours after dosing, using standard metabolic cages. The urine container and collected urine were maintained at 4° C. Urine was lyophilized, taken back into water. The ultrafiltrate was prepared by adding formic acid to a final concentration of 1% to the urine samples, then filtered through a 0.2 um nylon membrane. The ultrafiltrate was subjected to LC-MS analysis. Instead of measuring the product ions in Q3, manual Q1 scans of the liquid chromatograph were undertaken, seeking parent ions of potential metabolites of the compounds. The criteria for identifying metabolites were as follows: (1) the ion should be present in the sera or urines of dosed rats, but not in sera or urines from non-dosed rats (2) the ion should be identifiable as a metabolic derivative of the dosed compound (e.g. loss of a functional chemical moiety, addition of a hydroxyl group or a glucuronic acid moiety, etc). Metabolites were determined not to be present if no compound meeting the above criteria could be detected in serum or urine.

rat M1 receptors = target: T3, rat M1 receptors (Rattus norvegicus, UniProt P08482); assay: PI turnover (inositol phosphate production) in M1-CHO cells; type: cell-based; details: for Muscarinic agonist activity by PI turnover: cell lines expressing M1 and M3 subtypes
T3 construct: host or cells: Chinese Hamster Ovary cells (M1-CHO)
T3 sequence (P08482 1-460): T2 sequence (P11229 1-460) with A5V, T254S, P309S, R320K, A337G, I413V
Experimental: (§4) The medium was changed to 70 μL/well of inositol-free DMEM containing 2 mM glutamine, 10% FBS and 10 μCi/ml of [3H]-inositol (PE:cat #NET114A250UC), incubated overnight as above, then 100 μL of a solution of the test compound in HBSS containing 10 mM LiCl and 20 mM HEPES, pH 7.4 was added, incubation was continued for 60 min under the above conditions, and the test was stopped by removing the test compound and replacing with 100 μL of 50 mM formic acid in water at 4° C.

[5] = Blood and brain concentrations (rats) after oral gavage; type: in vivo, rat
Experimental: Long-Evans Hooded rats (Charles River: male, 250-350 g) were dosed with solutions of test compounds in PBS by oral gavage. At the desired time after dosing, the animals were anesthetized with isoflurane, and then euthanized by cervical dislocation. Blood was obtained by cardiac puncture, transferred to a 1.5 mL microcentrifuge tube containing 15U Heparin, and the plasma recovered after centrifugation. Brains were dissected, weighed, immediately chilled to 4° C., and homogenized using a PowerGen 125 homogenizer in five volumes of ice-cold 2% formic acid. Proteins were precipitated from plasma and brain homogenate with two and five volumes respectively of ice-cold 2% formic acid and clarified by centrifugation. The supernatant was ultra-filtered by centrifugation through a 3K MWCO spin column (Pall Life Sciences), following the manufacturer's instructions. The concentration of compound in the ultra-filtrate was subjected to reverse-phase liquid chromatography using a 150×2.1 mm Agilent C8 reverse-phase column on a Shimadzu Prominence LC, eluting the compounds with a gradient of 2% to 50% of acetonitrile+0.1% formic acid for compound MI-50,382, or an isocratic flow of 2% acetonitrile+0.1% formic acid for the rest of the compounds listed. The concentration of the compound in the column effluent was measured using an Applied Biosystems API-3200 triple quadrupole mass spectrometer equipped with an electrospray sample injection system. The counts of the characteristic parent and product ions of each test compound were converted to concentration units by comparison with a standard calibration curve.

rat M3 receptors = target: T4, rat M3 receptors (Rattus norvegicus, UniProt P08483); assay: PI turnover (inositol phosphate production) in M3-CHO cells; type: cell-based; details: mean Smax relative to mean Smax for carbachol (100)
T4 construct: host or cells: Chinese Hamster Ovary cells (M3-CHO)
T4 sequence (P08483 whole entry): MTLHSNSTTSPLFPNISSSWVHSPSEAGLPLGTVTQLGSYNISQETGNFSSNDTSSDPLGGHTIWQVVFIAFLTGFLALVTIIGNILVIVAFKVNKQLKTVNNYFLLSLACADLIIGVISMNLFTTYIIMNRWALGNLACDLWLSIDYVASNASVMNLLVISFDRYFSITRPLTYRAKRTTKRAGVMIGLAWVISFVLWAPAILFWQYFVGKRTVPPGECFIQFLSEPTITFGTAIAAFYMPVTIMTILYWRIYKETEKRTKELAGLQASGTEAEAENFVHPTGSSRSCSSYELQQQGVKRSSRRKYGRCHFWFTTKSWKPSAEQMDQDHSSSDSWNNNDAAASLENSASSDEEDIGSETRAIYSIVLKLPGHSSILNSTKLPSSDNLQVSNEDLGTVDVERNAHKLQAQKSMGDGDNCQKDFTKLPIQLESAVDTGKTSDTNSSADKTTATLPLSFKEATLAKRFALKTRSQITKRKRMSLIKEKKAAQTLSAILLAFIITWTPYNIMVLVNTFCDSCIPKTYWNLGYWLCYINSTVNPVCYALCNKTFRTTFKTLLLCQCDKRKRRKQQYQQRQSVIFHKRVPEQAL
Experimental: as §4

SMILES	Climbing Mean (secs) (CD-I mice; Cmpd 3 + APO + N-Methyl Scopolamine 0.3 mg/kg)	Climbing Mean (secs) (CD-I mice; Cmpd 3 + APO + scopolamine 0.3 mg/kg)	Potency in inhibiting climbing relative to reference antipsychotic (CD-I mice; sc)	huM3/A9L ED50 relative to CCh [1]	PAMPA units	Reduction of concentration of A-beta 1-40 in hippocampal microdialysate (A-beta)	Reduction of concentration of A-beta 1-42 in hippocampal microdialysate (A-beta)	Salivation (Long Evans Hooded rats)	huM1/A9L ED50 relative to CCh [2]	Metabolism in human liver microsomes [3]	Muscarinic agonist activity in vivo (rats; in vivo)	Presence of metabolites (10 mg/kg po) [4]	Muscarinic agonist activity by PI turnover (rat M1 receptors)	M1/CHO PI turnover Relative Mean Smax (rat M1 receptors; mean Smax relative to mean Smax for carbachol (100))	Plasma concentration relative to compound 1 ([5]; after oral dosing to rats)	Brain Cmax (10 mg/kg po) 1 hr MCD-386 = 1.00 ([5]; rat brain, 10 mg/kg po, 1 hr, relative to MCD-386)	Penetration into the brain ([5]; rats after oral dosing)	M3/CHO PI turnover Relative Mean Smax (rat M3 receptors)	Salivary flow (rats; rats, dosed orally)	Functional selectivity for M1 subtype by PI turnover (rat M1 receptors; M1 versus M3 cell lines)
Cc1noc(C2CCCNC2)n1 (racemic) [compound 3, 3-Methyl-5-(piperidin-3-yl)-1,2,4-oxadiazole]	unaffected by N-methylscopolamine	inhibited by scopolamine	equipotent to haloperidol	+/− (key: ++: potency > 10x CCh; +: potency 2-10x CCh; +/−: potency 0.5-2x CCh; −: potency < 0.5-0.1x CCh; −−: potency < 0.1x CCh; inactive: potency too low to determine)	2.56	approximately 40%	approximately 40%	causes salivation	+ (key: ++: potency > 10x CCh; +: potency 2-10x CCh; +/−: potency 0.5-2x CCh; −: potency < 0.5-0.1x CCh; −−: potency < 0.1x CCh; inactive: potency too low to determine)	metabolized significantly less in human liver microsomes than in rat liver microsomes										
[2H]C([2H])([2H])c1noc(C2CCCNC2)n1 (centres unmarked) [compound 7, 3-D3-Methyl-5-(piperidin-3-yl)-1,2,4-oxadiazole]										metabolized significantly less in human liver microsomes than in rat liver microsomes	demonstrated muscarinic agonist activity in vivo	No metabolites were identified and No	relatively low	2.7	approximately 2.4 times	2.16	penetrated into the brain	0		
Cl.[2H]C([2H])([2H])c1noc(C2CN=CNC2)n1 (centres unmarked) [compound 4, 3-(d3-methyl)-5-(1,4,5,6-tetrahydropyrimidin-5-yl)-1,2,4-oxadiazole hydrochloride]													near full-agonist					92.6	copious salivary flow, which was relatively short-lived	not selective for the M1 subtype

Reference: US8853219B2, “Compounds and compositions for cognition-enhancement, methods of making, and methods of treating” (NeuroSolis, Inc., priority 2010, dated 2014)
